Data as given in patent publication US20060106028A1, “Polycyclic aromatics and derivatives thereof and processes for their preparation” (priority 2004, published 2006).
≈ marks a conversion by molar mass, not a printed value. Read-outs that look alike come from different tables or passages of the source.

What was measured:
Type in all cases: cell-based
[1] = test system: Staphylococcus aureus (ATCC™ 6538P); assay: Antibacterial activity, MIC (NCCLS M7-A5); conditions: MH medium, 35° C., 16 to 20 hours
[2] = test system: Staphylococcus aureus MRS3 (ATCC™ 700699); assay: Antibacterial activity, MIC (NCCLS M7-A5); conditions: MH medium, 35° C., 16 to 20 hours
[3] = test system: Enterococcus faecalis VRE-1 (ATCC™ 29212); assay: Antibacterial activity, MIC (NCCLS M7-A5); conditions: BHI+ medium
[4] = test system: Enterococcus faecalis VRE-2 (ATCC™ 51299); assay: Antibacterial activity, MIC (NCCLS M7-A5); conditions: BHI+ medium, 35° C., 16 to 20 hours
[5] = test system: Streptococcus pneumoniae (LSPQ 3412); assay: Antibacterial activity, MIC (NCCLS M7-A5); conditions: MH medium +2% lysed horse blood
[6] = test system: Streptococcus pneumoniae PenR (LSPQ 3349); assay: Antibacterial activity, MIC (NCCLS M7-A5); conditions: MH medium +2% lysed horse blood
[7] = test system: Clostridium difficile (ATCC™ 9689); assay: Antibacterial activity, MIC (NCCLS M11-A5, anaerobic); conditions: Clostridioides difficile
Experimental: Antibacterial activity of Compounds 1 and 2 (Table 7) was measured by determining the minimal inhibitory concentration (MIC) necessary to obtain a complete inhibition of bacteria growth in seven indicator strains, namely Staphylococcus aureus (ATCC™ 6538P), Staphylococcus aureus MRS3 (ATCC™ 700699), Enterococcus faecalis VRE-1 (ATCC™ 29212), Enterococcus faecalis VRE-2 (ATCC™ 51299), Escherichia coli (ATCC™ 25922), Streptococcus pneumoniae (LSPQ 3412) and Streptococcus pneumoniae PenR (LSPQ 3349). Indicator strains preparation and MIC determination were performed according to the National Committee for Clinical Laboratory Standards (NCCLS) guideline M7-A5 Methods for Dilution Antimicrobial Susceptibility Tests for Bacteria That Grow Aerobically; Approved Standard-Fifth Edition. (NCCLS document M7-A5, ISBN 1-56238-394-9; NCCLS, 940 West Valley Road, Suite 1400, Wayne, Pa. 19087-1898 USA), the content of which is incorporated herein by reference. MIC determination against C. difficile was performed according to National Committee for Clinical Laboratory Standards (NCCLS) guideline M11-A5 Methods for Antimicrobial Susceptibility Testing of Anaerobic Bacteria.
Compounds 1 and 2 were prepared as 100× stock solutions in DMSO, with concentrations ranging from 3.2 mg/mL to 0.003 mg/mL (a two-fold dilution series over 11 points). An aliquot of each 100× stock solution was diluted 50-fold in test medium described below to give a set of eleven (11) 2× solutions. 50 μL of each of the eleven 2× solutions was aliquoted into the corresponding well of a 12-well row, with the final well reserved for medium alone control.
Vancomycin (Sigma™), used as positive control compound, was prepared as 2× stock solutions in Mueller-Hinton test medium ranging from 64 μg/mL to 0.06 μg/ml (a two-fold dilution series over 11 points). An aliquot of 50 μL corresponding to each concentration (at 2×) was then transferred to 96-well microplates to obtain a series of eleven two-fold dilutions.
An isolated colony of each of the indicator strains was used to inoculate tubes containing 2 mL of test medium. […]

[8] = test system: Saccharomyces cerevisiae FHCRC-50014; assay: Antifungal activity, MIC (NCCLS M27-A); conditions: FHCRC50014, after 24 hours, YPD medium
Experimental: (§1) Testing of antifungal activity was performed according to NCCLS method (NCCLS. Reference Method for Broth Dilution Antifungal Susceptibility Testing of Yeasts; Approved Standard. NCCLS document M27-A (ISBN 1-56238-328-0). NCCLS, 940 West Valley Road, Suite 1400, Wayne, Pa. 19087-1898 USA; www.nccls.org.). Compound 1 was prepared as 100× stock solutions in DMSO, with concentrations ranging from 3.2 mg/mL to 0.003 mg/mL (a two-fold dilution series over 11 points). An aliquot of each 100× stock solution was diluted 50-fold in test medium described below to give a set of eleven (11) 2× solutions. 50 μL of each of the eleven 2× solutions was aliquoted into the corresponding well of a 12-well row, with the final well reserved for medium alone control. Inoculum density for each indicator strain was adjusted to OD600=0.1 in 5 mL 0.85% saline, then further diluted 1/1000 in YPD medium. 50 μL of the final dilution (in test medium) of each indicator strain was added to each well of a 12-well row. This brings the final dilution of the test article or control compound in solution to 1×. The final inoculum was approximately 5×10^4 CFU/ml.
(§2) Bacterial strains Streptococcus pneumoniae LSPQ 3412 and LSPQ 3349 were obtained from the “Laboratoire de Sante Publique du Quebec”. Saccharomyces cerevisiae FHCRC-50014 and FHCRC-50514 were obtained from the “Fred Hutchison Cancer Research Center”.

[9] = test system: Saccharomyces cerevisiae FHCRC-50514; assay: Antifungal activity, MIC (NCCLS M27-A); conditions: FHCRC50514, after 24 hours, YPD medium
Experimental: as §1, §2

[10] = test system: HT-29 (colorectal carcinoma); assay: In vitro tumor growth inhibition (GI50, propidium iodide); conditions: Homo sapiens, 96 hrs
[11] = test system: MDA-MB-231 (mammary gland adenocarcinoma); assay: as above; conditions: Homo sapiens, 96 hrs
[12] = test system: PC-3 (prostate adenocarcinoma); assay: as above; conditions: 96 hrs
SF268 (CNS) = assay: as above; conditions: Homo sapiens; SF-268; 96 hrs
[13] = test system: Escherichia coli (ATCC™ 25922); assay: Antibacterial activity (NCCLS M7-A5); conditions: MH medium

SMILES | MIC [1] [µg/mL] | MIC [2] [µg/mL] | MIC ([3]; 35° C., 16 to 20 hours) [µg/mL] | MIC ([3]; when tested as control with Compound 2) [µg/mL] | MIC [4] [µg/mL] | MIC [5] [µg/mL] | MIC [6] [µg/mL] | MIC [7] [µg/mL] | MIC [8] [µg/mL] | MIC [9] [µg/mL] | GI50 [10] [µM] | GI50 [11] [µM] | GI50 [12] [µM] | GI50 (SF268 (CNS)) [µM] | MIC ([7]; Brucella medium with hemin, vitamin K1 and 5% lysed horse blood, read-out: MIC) [µg/mL] | Antibacterial activity [13]
CN[C@H](CC(C)C)C(=O)N[C@H]1C(=O)N[C@@H](CC(N)=O)C(=O)N[C@H]2C(=O)N[C@H]3C(=O)N[C@H](C(=O)N[C@H](C(=O)O)c4cc(O)cc(O)c4-c4cc3ccc4O)[C@H](O)c3ccc(c(Cl)c3)Oc3cc2cc(c3O[C@@H]2O[C@H](CO)[C@@H](O)[C@H](O)[C@H]2O[C@H]2C[C@](C)(N)[C@H](O)[C@H](C)O2)Oc2ccc(cc2Cl)[C@H]1O [Vancomycin, reference compound] | 1 (≈ 0.69 µM) | 4 (≈ 2.76 µM) | 8 (≈ 5.52 µM) | 4 (≈ 2.76 µM) | 32 (≈ 22.1 µM) | 0.5 (≈ 0.345 µM) | 0.5 (≈ 0.345 µM) | 0.5 (≈ 0.345 µM) |  |  |  |  |  |  |  | 
OC(Cn1cncn1)(Cn1cncn1)c1ccc(F)cc1F [Fluconazole, reference compound] |  |  |  |  |  |  |  |  | 8 (≈ 26.1 µM) | 0.25 to 0.5 (≈ 0.816 to 1.63 µM) |  |  |  |  |  | 
CCC(C)c1cc2c(=O)c3ccc4c(OC)c5c(=O)c6c(O)ccc(O)c6c(=O)c5c(O)c4c3c(=O)c2c(=O)n1CC(=O)N1CC(C(=O)OC)NC(=O)C1C (stereo not shown) [Compound 2] | 0.0625 (≈ 0.0831 µM) | 0.125 (≈ 0.166 µM) | 1 (≈ 1.33 µM) |  | 1 (≈ 1.33 µM) | 1 (≈ 1.33 µM) | 1 (≈ 1.33 µM) |  |  |  | 16.1 | 4.04 | 4.61 | 2.63 | 2 (≈ 2.66 µM) | inactive
